Test results reported in ChEMBL document CHEMBL1201862, “PubChem BioAssay data set” (2004).
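A five-concentration, 48-hour dose response in 96-well plates underlies each endpoint, interpolated linearly between surrounding concentrations. GI50 = concentration required for 50% inhibition of growth.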 Activity calls are given as the source filed them. Cut-off read from the data, not from the text of the source: active = GI50 up to about 1.1 µM and inactive = higher.

Assays:
Assay in all cases: DTP human tumour cell line panel, 48 h
CAKI-1 = tested on: CAKI-1
786-0 = tested on: 786-0
A498 = tested on: A498
OVCAR-4 = tested on: OVCAR-4
CCRF-CEM = tested on: CCRF-CEM
OVCAR-5 = tested on: OVCAR-5
RXF 393 = tested on: RXF 393
COLO 205 = tested on: COLO 205
SK-OV-3 = tested on: SK-OV-3
UO-31 = tested on: UO-31
EKVX = tested on: EKVX
MDA-MB-435 = tested on: MDA-MB-435
SNB-19 = tested on: SNB-19
HOP-62 = tested on: HOP-62
UACC-62 = tested on: UACC-62
SK-MEL-5 = tested on: SK-MEL-5
HCT-15 = tested on: HCT-15
Malme-3M = tested on: Malme-3M
SW-620 = tested on: SW-620

CCOP(=O)(OCC)C(Nc1cccc([N+](=O)[O-])c1)c1ccccc1 (configuration not stated)
GI50 (CAKI-1): > 100 µM (inactive) | GI50 (786-0): > 100 µM (inactive) | GI50 (A498): > 100 µM (inactive) | GI50 (OVCAR-4): > 100 µM (inactive) | GI50 (CCRF-CEM): 68.1 µM (inactive) | GI50 (OVCAR-5): > 100 µM (inactive) | GI50 (RXF 393): 88.3 µM (inactive) | GI50 (COLO 205): 34.6 µM (inactive) | GI50 (SK-OV-3): > 100 µM (inactive) | GI50 (UO-31): 48.8 µM (inactive) | GI50 (EKVX): 62.2 µM (inactive) | GI50 (MDA-MB-435): > 100 µM (inactive) | GI50 (SNB-19): > 100 µM (inactive) | GI50 (HOP-62): > 100 µM (inactive) | GI50 (UACC-62): 58.2 µM (inactive) | GI50 (SK-MEL-5): 64.3 µM (inactive) | GI50 (HCT-15): 71.6 µM | GI50 (Malme-3M): 40.1 µM (inactive)

Cc1c(C(=O)Nc2ccc(Cl)c(C(F)(F)F)c2)oc2cc(O)ccc2/c1=N\NC(N)=S
GI50 (CAKI-1): > 100 µM (inactive) | GI50 (786-0): > 100 µM (inactive) | GI50 (A498): > 100 µM (inactive) | GI50 (OVCAR-4): > 100 µM (inactive) | GI50 (SW-620): > 100 µM (inactive) | GI50 (CCRF-CEM): > 100 µM (inactive) | GI50 (OVCAR-5): > 100 µM (inactive) | GI50 (RXF 393): > 100 µM (inactive) | GI50 (COLO 205): > 100 µM (inactive) | GI50 (SK-OV-3): > 100 µM (inactive) | GI50 (UO-31): > 100 µM (inactive) | GI50 (EKVX): > 100 µM (inactive) | GI50 (SNB-19): > 100 µM (inactive) | GI50 (HOP-62): > 100 µM (inactive) | GI50 (UACC-62): > 100 µM (inactive) | GI50 (SK-MEL-5): > 100 µM (inactive) | GI50 (HCT-15): > 100 µM | GI50 (Malme-3M): > 100 µM (inactive)

Oc1cc2cc(-c3ccccc3)[nH]c2c2ccccc12
GI50 (CAKI-1): 18.5 µM (inactive) | GI50 (786-0): > 59 µM (inactive) | GI50 (A498): > 100 µM (inactive) | GI50 (OVCAR-4): 33.4 µM (inactive) | GI50 (SW-620): 34.4 µM (inactive) | GI50 (CCRF-CEM): 28.6 µM (inactive) | GI50 (OVCAR-5): > 100 µM (inactive) | GI50 (RXF 393): 27.8 µM (inactive) | GI50 (COLO 205): 10.4 µM (inactive) | GI50 (SK-OV-3): > 77.8 µM (inactive) | GI50 (UO-31): 19.2 µM (inactive) | GI50 (EKVX): > 48.9 µM (inactive) | GI50 (SNB-19): 21.7 µM (inactive) | GI50 (HOP-62): > 85.9 µM (inactive) | GI50 (UACC-62): 15.2 µM (inactive) | GI50 (SK-MEL-5): 14.1 µM (inactive) | GI50 (HCT-15): 27.1 µM | GI50 (Malme-3M): 19.9 µM (inactive)

COc1cc(/C=N\c2ccc(C(C)C)cc2)cc(OC)c1OC
GI50 (CAKI-1): > 100 µM (inactive) | GI50 (786-0): > 100 µM (inactive) | GI50 (A498): > 100 µM (inactive) | GI50 (OVCAR-4): > 100 µM (inactive) | GI50 (SW-620): > 37 µM (inactive) | GI50 (CCRF-CEM): > 66.8 µM (inactive) | GI50 (OVCAR-5): > 100 µM (inactive) | GI50 (RXF 393): > 100 µM (inactive) | GI50 (COLO 205): > 73.6 µM (inactive) | GI50 (SK-OV-3): > 100 µM (inactive) | GI50 (UO-31): > 74.1 µM (inactive) | GI50 (EKVX): > 100 µM (inactive) | GI50 (SNB-19): > 100 µM (inactive) | GI50 (HOP-62): > 100 µM (inactive) | GI50 (UACC-62): > 100 µM (inactive) | GI50 (SK-MEL-5): > 78 µM (inactive) | GI50 (HCT-15): > 55.5 µM | GI50 (Malme-3M): > 100 µM (inactive)
